Laboratory results as given in US20240307424A1, “COMPOSITION CAPABLE OF PROMOTING HAIR GROWTH, DRUG CAPABLE OF PROMOTING HAIR GROWTH, AND APPLICATION THEREOF” (GUANGXI XINHAI PHARMACEUTICAL TECHNOLOGY CO., LTD., priority 2022, published 2024).

Legend:
[1] = tested on: hair removal area on the back of mice; assay: Hair growth on the back of mice after hair removal (photos, hair growth speed score); format: in vivo, KM mice; conditions: twice a day, 2 weeks; for hair growth speed (score 0-3) of the hair removal area: high dose 2 mg/mL, compared with the model group
Excerpt: The experimental animals are purchased from National Institutes for Food and Drug Control with a production license No. of SCXK2017 (Jing)-0005, KM mice, male, 18-20 g. SPF grade.
Except for a normal control group, the back of all the mice in the other groups are subjected to hair removal.
The experimental animals are purchased from National Institutes for Food and Drug Control with the production license No. of SCXK2017 (Jing)-0005, KM mice, male, 18-20 g, spf grade.
Except for the normal control group, the back of all the mice in the other groups are subjected to hair removal.

[2] = Weight of mice after administration for 2 weeks
Procedure: Animal grouping: a blank group, a model group, a Vaseline group, a pulchinenoside B4-low dose group, a pulchinenoside B4-medium dose group, a pulchinenoside B4-high dose group, a positive drug of minoxidil liniment group, 10 mice per group, pulchinenoside B4 and minoxidil liniment in each group are dissolved with Vaseline. The mice in the Vaseline group are administered Vaseline, the low dose, and medium dose and high dose of pulchinenoside B4 are 0.5, 1, and 2 mg/mL, respectively. The mice are administered twice a day, after 2 weeks of continuous administration, the skin tissue of a hair removal area on the back of the mice in each group is taken, is fixed and is subjected to HE staining, and the number of hair follicles is counted under a microscope.
Animal grouping: a blank group, a model group, a Vaseline group, a pulchinenoside B5-low dose group, a pulchinenoside B5-medium dose group, a pulchinenoside B5-high dose group, a positive drug of minoxidil liniment group, 10 mice per group, pulchinenoside B5 and minoxidil liniment in each group are dissolved with Vaseline. […] The mice are administered twice a day, after 2 weeks of continuous administration, the skin tissue of a hair removal area on the back of the mice in each group is obtained, is fixed and is subjected to HE staining, and the number of hair follicles is counted under a microscope.

[3] = tested on: hair follicles in the skin tissue of the hair removal area on the back of mice; assay: Number of hair follicles in skin tissue of the hair removal area (HE staining); format: in vivo, KM mice; conditions: twice a day, 2 weeks, compared with the model group
Excerpt: After the mice are sacrificed, the skin tissue of the back is fixed, is embedded with paraffin to obtain a paraffin-embedded section, is subjected to HE staining, and is counted the number of hair follicles to evaluate the effect of hair growth promotion.

[4] = medium dose 1 mg/mL in Vaseline

Row | effect on the weight of mice [2] | SMILES | hair growth in the hair removal area on the back of mice (photos) ([1]; high dose 2 mg/mL in Vaseline) | hair growth speed (score 0-3) of the hair removal area [1] | hair growth in the hair removal area on the back of mice (photos) ([1]; low dose 0.5 mg/mL in Vaseline) | hair growth in the hair removal area on the back of mice (photos) [1, 4] | number of hair follicles in the skin tissue of the hair removal area ([3]; high dose 2 mg/mL) | number of hair follicles in the skin tissue of the hair removal area ([3]; low dose 0.5 mg/mL) | number of hair follicles in the skin tissue of the hair removal area ([3]; medium dose 1 mg/mL)
1 | no significant effect | C[C@@H]1O[C@@H](OC2[C@@H](CO)OC(OCC3OC(OC(=O)C45CCC(C)(C)C[C@@H]4[C@H]4CC[C@@H]6[C@@]7(C)CC[C@H](O[C@@H]8OC[C@H](O)[C@H](O)[C@H]8O[C@@H]8O[C@@H](C)[C@H](O)[C@@H](O)[C@H]8O)C(C)(CO)[C@@H]7CC[C@@]6(C)[C@]4(C)CC5)[C@H](O)[C@@H](O)[C@@H]3O)[C@H](O)[C@H]2O)[C@H](O)[C@H](O)[C@H]1O (stereo partly drawn) [pulchinenoside B5] | can promote hair growth | significantly increased | can promote hair growth | can promote hair growth | significantly increase | significantly increase | significantly increase
2 | – | C=C(C)[C@@H]1CCC2(C(=O)OC3OC(COC4O[C@H](CO)C(O[C@@H]5O[C@@H](C)[C@H](O)[C@@H](O)[C@H]5O)[C@H](O)[C@H]4O)[C@@H](O)[C@H](O)[C@H]3O)CC[C@]3(C)[C@H](CC[C@@H]4[C@@]5(C)CC[C@H](O[C@@H]6OC[C@H](O)[C@H](O)[C@H]6O[C@@H]6O[C@@H](C)[C@H](O)[C@@H](O)[C@H]6O)[C@@](C)(CO)C5CC[C@]43C)[C@@H]12 (stereo partly drawn) [pulchinenoside B4] | can promote hair growth | significantly increased | can promote hair growth | can promote hair growth | significantly increase | significantly increase | significantly increase
